Patent publication US11447535B2, “GLP-1 analogues” (Sun Pharmaceutical Industries Limited, priority 2018, dated 2022)
Marks after values point to notes of the source that are not given here.

Assays:
[1] = system: db/db type 2 diabetic mice; experiment: Reduction of HbA1c in db/db type 2 diabetic mice after chronic treatment (27 day study); type: in vivo; conditions: for cumulative food intake vs diabetic control group: 0 to 27th day (FIG. 8); for % HbA1c % Change vs DC: Day 27, vs Diabetic Control; for % change in body weight: day 0 to day 27 (FIG. 9)
Procedure: This study was done in diabetic mouse model. The animals were divided into three treatment groups—a diabetic control group, a test group and a semaglutide treatment group. Compound 1 of the present disclosure was injected subcutaneously at 0.3 mg/kg dose once a day for 3 days (qd*3) followed by 0.1 mg/kg dose every alternate day for 7 doses (q2d*7) followed by 0.1 mg/kg dose once every four days for two dose cycles (q4d*2). The same dosage regimen was administered in semaglutide treatment group. Measurements of blood glucose levels and body weight were done daily. % HbA1c was measured on Day 0, day 7, day 14 and day 27 by column chromatography. Cumulative food intake was calculated on day 27. % HbA1C data was analyzed by two way ANOVA followed by Bonferroni's posttests using PRISM (Graph Pad version 5.03).

SD rats = experiment: Oral glucose tolerance test (OGTT) in rats; single injection; 1 mg/kg; type: in vivo; parameters: Change in AUC (mg/dL*min): unit not given here; conditions: for Blood Glucose AUC (mg/dL*min) Mean / Change in AUC (mg/dL*min): 1 mg/Kg; for reduction in blood glucose AUC: after 168 hrs of injection, 1 mg/kg; for Change in AUC (mg/dL*min): Exp. 1, vs control group
Procedure: (§1) Animals were divided into three groups—a normal control group, a test group and a third semaglutide group, with 4 animals in each group. The animals were fasted for 12 hours before initiation of OGTT. To the test group animals, the Compound 1 was injected subcutaneously at 1 mg/kg dose. To the semaglutide group, a dose of 1 mg/kg was injected subcutaneously. After 22 hrs, 166 hrs and 334 hrs of subcutaneous injection of test drug or semaglutide, blood glucose was measured with blood glucose meter (time 0 measurements). All the animals were then given 2 g/kg of glucose solution orally. Blood glucose was measured at 20, 40, 60, 90 and 120 minutes following glucose challenge. Body weight and food intake was recorded. Blood glucose data was analyzed using Two way ANOVA followed by Bonferroni posttests using PRISM (Graph Pad version 5.03). Data of Blood glucose AUC0-120 min, was analyzed using t test.
as §1, with “animals,” for “animals, the”, “1, Compound 13 and Compound 16 were” for “1 was”, “compound” for “drug”

[2] = system: db/db mice (diabetic mouse model); experiment: Separate db/db diabetic mouse study, q2d*15 up to day 28, recovery period day 29 to day 45; type: in vivo; conditions: for Blood Glucose AUC (Day 30-37) % Change vs Control / Blood Glucose AUC (Day 30-37) (mg/dL*days) Mean / Blood Glucose AUC (Day 38-45) % Change vs Control / Blood Glucose AUC (Day 38-45) (mg/dL*days) Mean: recovery period
Procedure: The study was performed in similar manner as above on diabetic mouse model. The animals were divided into three treatment groups—a diabetic control group, a test group and a semaglutide treatment group. The representative compounds of the present disclosure, Compound 1, Compound 13 and Compound 16, were injected subcutaneously at 3.04 or 6.078 nM dose (every alternate day up to day 28 (q2d*15). The same dosage regimen was administered in semaglutide treatment group. Measurements of blood glucose levels and body weight were done daily. % HbA1c, Insulin was measured on Day 0, day 14 and day 29. Cumulative food intake and body weight change was calculated on day 14 and 29. % HbA1c, Insulin data was analyzed by two way ANOVA followed by Bonferroni's posttests using PRISM (Graph Pad version 5.03). Whereas Blood Glucose AUC, Body weight change and Cumulative food intake data was analyzed by one way ANOVA followed by Bonferroni's posttests using PRISM (Graph Pad version 5.03). From day 29 to day 45, animals were kept on recovery period during which no drug treatment was given. Blood Glucose and Body weight was measured during this period. On day 45, Body weight Changes, % HbA1c, Insulin was measured.

[3] = Food intake and body weight recorded in the rat OGTT study; type: in vivo, rats; conditions: for Body Weight (Day 2) % Change vs Baseline / Body Weight (g) (Day 2) Mean / Body Weight (Day 4) % Change vs Baseline / Body Weight (g) (Day 4) Mean / Food Consumption (g) (day 0 to day 2) Mean / Food Consumption (g) (day 0 to day 4) Mean: rats, 1 mg/kg s.c. single injection
Procedure: as §1
as §1, with “animals,” for “animals, the”, “1, Compound 13 and Compound 16 were” for “1 was”, “compound” for “drug”

[4] = db/db mice, Day 0 (before treatment)
[5] = db/db mice, Day 27, s.c. 0.3 mg/kg qd*3, 0.1 mg/kg q2d*7, 0.1 mg/kg q4d*2
[6] = recovery study, day 45, earlier dose 12.155 nM
[7] = recovery study, day 45, earlier dose 6.078 nM (6.0788 nM given for Compound 13)

## Semaglutide [reference compound]
[1]; db/db mice
  cumulative food intake vs diabetic control group: statistically significant reduction in food intake
  % HbA1c % Change vs DC: −2.26%
  % change in body weight: −8%
[1]; [4]
  % HbA1c Mean: 5.05%
[1]; [5]
  % HbA1c Mean: 5.03*** %
SD rats; OGTT, 1 mg/Kg dose, after 24 hrs
  % Glucose Reduction (Blood Glucose AUC0-120 min): 49.3%
SD rats; OGTT, 22 hr, Exp. 1
  Blood Glucose AUC (mg/dL*min) Mean: 5458.0 mg·min/dL
SD rats; OGTT, 22 hr, Exp. 2
  Blood Glucose AUC (mg/dL*min) Mean: 4258 mg·min/dL
SD rats; OGTT, 168 hr, Exp. 1
  Blood Glucose AUC (mg/dL*min) Mean: 12785.0 mg·min/dL
SD rats; OGTT, 168 hr, Exp. 2
  Blood Glucose AUC (mg/dL*min) Mean: 7410 mg·min/dL
SD rats; OGTT, 336 hr, Exp. 1
  Blood Glucose AUC (mg/dL*min) Mean: 16223.0 mg·min/dL
SD rats; OGTT, 336 hr, Exp. 2
  Blood Glucose AUC (mg/dL*min) Mean: 8023.0 mg·min/dL
SD rats
  reduction in blood glucose AUC: about 25%
[2]; 12.155 nM, q2d*15
  Blood Glucose AUC (Day 0-29) % Change Vs Control: −41.78%
  Blood Glucose AUC (Day 0-29) (mg/dL*days) Mean: 9867.9*** mg/dL*days
  Body Weight Change Day 29, % Change vs Day 0 Mean: 0.7%
  Cumulative Food Intake (g) Day 0-29 Mean: 92.0 g
[2]; Day 0, 12.15 nM, q2d*15
  % HbA1C Mean: 7.66%
  Insulin (ng/mL) Mean: 18.7 ng/mL
[2]; Day 14, 12.15 nM, q2d*15
  % HbA1C Mean: 7.04%
  Insulin (ng/mL) Mean: 37.5 ng/mL
[2]; Day 29, 12.15 nM, q2d*15
  % HbA1C Mean: 6.47 *** %
  Insulin (ng/mL) Mean: 48.1** ng/mL
[2]; earlier dose 12.155 nM
  Blood Glucose AUC (Day 30-37) % Change vs Control: −15.58%
  Blood Glucose AUC (Day 30-37) (mg/dL*days) Mean: 3032.0 mg·days/dL
  Blood Glucose AUC (Day 38-45) % Change vs Control: −5.16%
  Blood Glucose AUC (Day 38-45) (mg/dL*days) Mean: 3415.7 mg·days/dL
[2]; [6]
  % HbA1C Mean: 7.8%
  Delta HbA1C vs. DC: −0.7
  Insulin (ng/mL) Mean: 19.7 ng/mL
[2]; recovery study, earlier dose 12.155 nM
  Body Weight % Change vs Day 45 Mean: 9.5%
[3]; 1 mg/Kg, 48 h, Exp. 1
  Body Weight Change (%) Mean: −6.5%
  Food Consumption (g) Mean: 17.5 g
[3]; 1 mg/Kg, 48 h, Exp. 2
  Body Weight Change (%) Mean: −8.7%
  Food Consumption (g) Mean: 19.3 g
[3]; 1 mg/Kg, 154 h, Exp. 1
  Body Weight Change (%) Mean: 4.5%
  Food Consumption (g) Mean: 86.3 g
[3]; 1 mg/Kg, 154 h, Exp. 2
  Body Weight Change (%) Mean: 0.2%
  Food Consumption (g) Mean: 50.4 g
[3]; 1 mg/Kg, 324 h, Exp. 1
  Body Weight Change (%) Mean: 11.8%
  Food Consumption (g) Mean: 107.9 g
[3]; 1 mg/Kg, 324 h, Exp. 2
  Body Weight Change (%) Mean: 3.8%
  Food Consumption (g) Mean: 96.8 g
[3]
  Body Weight (Day 2) % Change vs Baseline: −7.65%
  Body Weight (g) (Day 2) Mean: 428.1 g
  Body Weight (Day 4) % Change vs Baseline: −5.3%
  Body Weight (g) (Day 4) Mean: 427.2 g
  Food Consumption (g) (day 0 to day 2) Mean: 5.03*** g
  Food Consumption (g) (day 0 to day 4) Mean: 55.73*** g

## N-ε^26-[2-(2-[2-(2-[2-(2-[4-(17-Carboxyheptadecanoylamino)-4(S)carboxybutyrylamino]ethoxy) ethoxy]acetylamino)ethoxy]ethoxy)acetyl][(Aib^8, Arg^34, Leu^38 GLP-1(7-38) peptide (HXXXGTFTSDVSSYLXGQAAXEFXAWLVRGRGXX; C18 diacid-gGlu-OEG-OEG on Lys26; Aib8; (2)..(2) Xaa = Aib; (3)..(3) Xaa = absent.; (4)..(4) Xaa = Glu.; (16)..(16) Xaa = Glu.; (21)..(21) Lys is substituted; (24)..(24) Xaa is Ile.; (33)..(33) Xaa is Leu.; (34)..(34) Xaa is absent.) [Compound 1]
[1]; db/db mice
  cumulative food intake vs diabetic control group: significant reduction in food intake
  % HbA1c % Change vs DC: −3.57%
  % change in body weight: −16%
[1]; [4]
  % HbA1c Mean: 4.87%
[1]; [5]
  % HbA1c Mean: 3.73***^## %
[1]; db/db mice, chronic treatment (FIG. 7)
  blood glucose levels vs diabetic control group: statistically significant reduction in blood glucose levels
[1]; db/db mice, latter phase of the study (FIG. 7)
  blood glucose effect vs semaglutide treatment group: superior to semaglutide treatment group in latter phase of the study
[1]; db/db type 2 diabetic mice, 27 day study
  HbA1c level after chronic treatment: statistically significant reduction in HbA1c level
SD rats; OGTT, 22 hr, Exp. 1
  Blood Glucose AUC (mg/dL*min) Mean: 3173.0 mg·min/dL
SD rats; OGTT, 22 hr
  Change in AUC (mg/dL*min): −78.7
SD rats; OGTT, 168 hr, Exp. 1
  Blood Glucose AUC (mg/dL*min) Mean: 5941.0 mg·min/dL
SD rats; OGTT, 168 hr
  Change in AUC (mg/dL*min): −65.4
SD rats; OGTT, 336 hr, Exp. 1
  Blood Glucose AUC (mg/dL*min) Mean: 11920.0 mg·min/dL
SD rats; OGTT, 336 hr
  Change in AUC (mg/dL*min): −28.3
SD rats; OGTT, 22 hours after single dosing, 1 mg/kg s.c. (FIG. 6A)
  blood glucose level vs normal control: statistically significant reduction in blood glucose level
SD rats; OGTT, after 22 hrs, 1 mg/kg s.c. (FIG. 6A)
  glucose lowering effect vs semaglutide: superior to the glucose lowering effect observed with semaglutide
SD rats; OGTT, after 46 hours of subcutaneous administration (FIG. 6B)
  glucose lowering effect vs semaglutide: superiority of glucose lowering effect
SD rats
  reduction in blood glucose AUC: about 60%
[2]; 6.078 nM, q2d*15
  Blood Glucose AUC (Day 0-29) % Change Vs Control: −45.75%
  Blood Glucose AUC (Day 0-29) (mg/dL*days) Mean: 9194.6*** mg/dL*days
  Body Weight Change Day 29, % Change vs Day 0 Mean: −0.3%
  Cumulative Food Intake (g) Day 0-29 Mean: 79.8 g
[2]; Day 0, 6.078 nM, q2d*15
  % HbA1C Mean: 7.8%
  Insulin (ng/mL) Mean: 18.0 ng/mL
[2]; Day 14, 6.078 nM, q2d*15
  % HbA1C Mean: 6.4 ** %
  Insulin (ng/mL) Mean: 58.1** ng/mL
[2]; Day 29, 6.078 nM, q2d*15
  % HbA1C Mean: 6.2 *** %
  Insulin (ng/mL) Mean: 54.7** ng/mL
[2]; about 3 nM and 6 nM dose
  HbA1c, blood glucose, food consumption and body weight vs control: significant reduction
[2]; earlier dose 6.078 nM
  Blood Glucose AUC (Day 30-37) % Change vs Control: −22.39%
  Blood Glucose AUC (Day 30-37) (mg/dL*days) Mean: 2787.3* mg/dL*days
  Blood Glucose AUC (Day 38-45) % Change vs Control: −7.39%
  Blood Glucose AUC (Day 38-45) (mg/dL*days) Mean: 3335.7 mg·days/dL
[2]; [7]
  % HbA1C Mean: 7.6%
  Delta HbA1C vs. DC: −0.9
  Insulin (ng/mL) Mean: 30.9 ng/mL
[2]; recovery study, earlier dose 6.078 nM (6.0788 nM given for Compound 13)
  Body Weight % Change vs Day 45 Mean: 5.9%
[3]; 1 mg/Kg, 48 h, Exp. 1
  Body Weight Change (%) Mean: −9.8%
  Food Consumption (g) Mean: 8.3 g
[3]; 1 mg/Kg, 154 h, Exp. 1
  Body Weight Change (%) Mean: 5.2%
  Food Consumption (g) Mean: 69.6 g
[3]; 1 mg/Kg, 324 h, Exp. 1
  Body Weight Change (%) Mean: 9.3%
  Food Consumption (g) Mean: 99.4 g
[3]; 1 mg/Kg, text on Table 8
  food consumed vs animals administered with semaglutide: consumed significantly less food
[3]
  Body Weight (Day 2) % Change vs Baseline: −9.33%
  Body Weight (g) (Day 2) Mean: 365.6 g
  Body Weight (Day 4) % Change vs Baseline: −7.5%
  Body Weight (g) (Day 4) Mean: 436.2* g
  Food Consumption (g) (day 0 to day 2) Mean: 2.63*** g
  Food Consumption (g) (day 0 to day 4) Mean: 43.25***^,## g
